Laboratory results published in US10800725B2, “Arylpropionyl-triketone antibacterial agents” (priority 2010, dated 2020).
In brackets after ≈: the same amount, converted by molar mass.

Columns and labels:
[1] = tested on: Enterococcus faecalis ATCC 19433; test: MIC, spiral gradient endpoint assay; details: ATCC19433, read-out: MIC E. faecalis 19433
[2] = tested on: Moraxella catarrhalis ATCC 25238; test: MIC, spiral gradient endpoint assay (GC II agar, 5% CO2); details: ATCC25238, read-out: MIC M. catarrhalis 25238
[3] = tested on: Staphylococcus aureus ATCC 12600; test: MIC, spiral gradient endpoint assay; details: ATCC12600, read-out: MIC S. aureus 12600
[4] = tested on: Bacillus anthracis Vollum-1b; test: microbe, parasite or virus in culture; format: cell-based; details: VOLLUM1B, read-out: MIC B. anthracis Vollum-1b
[5] = tested on: Streptococcus pneumoniae ATCC 49619; test: MIC, spiral gradient endpoint assay (GC II agar, 5% CO2); details: ATCC49619, read-out: MIC S. pneumoniae 49619
[6] = tested on: Escherichia coli D21f2tolC; test: MIC, spiral gradient endpoint assay; details: read-out: MIC E. coli D21f2tolC
[7] = tested on: Staphylococcus aureus BAA-1717 MRSA (USA300); test: MIC, spiral gradient endpoint assay; details: read-out: MIC S. aureus MRSA 1717
[8] = tested on: Enterococcus faecium ATCC 19434; test: MIC, spiral gradient endpoint assay; details: ATCC19434, read-out: MIC E. faecium 19434
[9] = tested on: Staphylococcus aureus ATCC 13709 MSSA; test: MIC, spiral gradient endpoint assay; details: read-out: MIC S. aureus 13709
[10] = tested on: Mycobacterium tuberculosis H37Rv; test: MIC, microplate Alamar Blue assay; details: read-out: MIC M. tuberculosis H37Rv
[11] = tested on: Francisella tularensis SCHU4; test: microbe, parasite or virus in culture; format: cell-based; details: SCHU4, read-out: MIC F. tularensis SCHU4
[12] = target: E. coli RNA polymerase σ70 holoenzyme (Escherichia coli (strain K12), UniProt P0A8T7+P0A8V2); test: Fluorescence-detected RNA polymerase assay, E. coli RNAP; format: biochemical
Method: (§1) Fluorescence-detected RNA polymerase assays with E. coli RNA polymerase were performed by a modification of the procedure of Kuhlman et al., 2004 [Kuhlman, P., Duff, H. & Galant, A. (2004) A fluorescence-based assay for multisubunit DNA-dependent RNA polymerases. Anal. Biochem. 324, 183-190]. Reaction mixtures contained (20 μl): 0-100 nM test compound, 75 nM E. coli RNA polymerase σ^70 holoenzyme, 20 nM 384 bp DNA fragment containing the bacteriophage T4 N25 promoter, 100 μM ATP, 100 μM GTP, 100 μM UTP, 100 μM CTP, 50 mM Tris-HCl, pH 8.0, 100 mM KCl, 10 mM MgCl2, 1 mM DTT, 10 μg/ml bovine serum albumin, and 5.5% glycerol. Reaction components other than DNA and NTPs were pre-incubated for 10 min at 37° C. Reactions were carried out by addition of DNA and incubation for 5 min at 37° C., followed by addition of NTPs and incubation for 60 min at 37° C. DNA was removed by addition of 1 μl 5 mM CaCl2 and 2 U DNaseI (Ambion, Inc.), followed by incubation for 90 min at 37° C. RNA was quantified by addition of 100 μl RiboGreen RNA Quantitation Reagent (Invitrogen, Inc.; 1:500 dilution in Tris-HCl, pH 8.0, 1 mM EDTA), followed by incubation for 10 min at 25° C., followed by measurement of fluorescence intensity [excitation wavelength=485 nm and emission wavelength=535 nm; QuantaMaster QM1 spectrofluorometer (PTI, Inc.)]. IC50 is defined as the concentration of inhibitor resulting in 50% inhibition of RNA polymerase activity.

[13] = target: M. tuberculosis RNA polymerase core enzyme + σA (Mycobacterium tuberculosis (strain ATCC 25618 / H37Rv), UniProt P9WGY7+P9WGY9); test: Fluorescence-detected RNA polymerase assay, M. tuberculosis RNAP; format: biochemical
Method: as §1
Fluorescence-detected RNA polymerase assays with M. tuberculosis RNA polymerase were performed as in Example 21.1, using reaction mixtures containing (20 μl): 0-100 nM test compound, 75 nM M. tuberculosis RNA polymerase core enzyme, 300 nM M. tuberculosis σ^A, 20 nM 384 bp DNA fragment containing the bacteriophage T4 N25 promoter, 100 μM ATP, 100 μM GTP, 100 μM UTP, 100 μM CTP, 40 mM Tris-HCl, pH 8.0, 80 mM NaCl, 5 mM MgCl2, 2.5 mM DTT, and 12.7% glycerol. IC50 is defined as the concentration of inhibitor resulting in 50% inhibition of RNA polymerase activity.

[14] = tested on: Staphylococcus aureus BAA-1707 MRSA (MW2); test: MIC, spiral gradient endpoint assay; details: read-out: MIC S. aureus MRSA 1707
[15] = tested on: Streptococcus pyogenes ATCC 12344; test: MIC, spiral gradient endpoint assay (GC II agar, 5% CO2); details: ATCC12344, read-out: MIC S. pyogenes 12344
[16] = target: S. aureus RNA polymerase core enzyme + σA (Staphylococcus aureus (strain NCTC 8325 / PS 47), UniProt P47768+Q2G0N5); test: Fluorescence-detected RNA polymerase assay, S. aureus RNAP; format: biochemical
Method: as §1
Fluorescence-detected RNA polymerase assays with S. aureus RNA polymerase were performed as in Example 21.1, using reaction mixtures containing (20 μl): 0-100 nM test compound, 75 nM S. aureus RNA polymerase core enzyme, 300 nM S. aureus σ^A, 20 nM 384 bp DNA fragment containing the bacteriophage T4 N25 promoter, 100 μM ATP, 100 μM GTP, 100 μM UTP, 100 μM CTP, 40 mM Tris-HCl, pH 8.0, 80 mM NaCl, 5 mM MgCl2, 2.5 mM DTT, and 12.7% glycerol. IC50 is defined as the concentration of inhibitor resulting in 50% inhibition of RNA polymerase activity.

Structure (SMILES): CCCCC1=C(O)C(CCCC)(CCCC)C(=O)C(C(=O)CCc2ccccc2)=C1O [Compound 18, 3,5-dihydroxy-2-(3-phenylpropanoyl)-4,6,6-tributylcyclohexa-2,4-dienone]
- MIC [1]: 11 µg/mL (≈ 25.8 µM)
- MIC [2]: 24 µg/mL (≈ 56.3 µM)
- MIC [3]: < 0.5 µg/mL
- MIC [4]: 0.049 µg/mL (≈ 0.115 µM)
- MIC [5]: 9.3 µg/mL (≈ 21.8 µM)
- MIC [6]: 1.2 µg/mL (≈ 2.81 µM)
- MIC [7]: < 0.5 µg/mL
- MIC [8]: 0.6 µg/mL (≈ 1.41 µM)
- MIC [9]: 0.8 µg/mL (≈ 1.88 µM)
- MIC [10]: 50 µg/mL (≈ 117 µM)
- MIC [11]: 25 µg/mL (≈ 58.6 µM)
- IC50 [12]: 33 µM
- IC50 [13]: 22 µM
- MIC [14]: 0.8 µg/mL (≈ 1.88 µM)
- MIC [15]: 12 µg/mL (≈ 28.1 µM)
- IC50 [16]: 80 µM

Structure (SMILES): CCCCCC1=C(O)C(CCCCC)(CCCCC)C(=O)C(C(=O)CCc2ccccc2)=C1O [Compound 19, 3,5-dihydroxy-2-(3-phenylpropanoyl)-4,6,6-tripentylcyclohexa-2,4-dienone]
- MIC [1]: 9 µg/mL (≈ 19.2 µM)
- MIC [2]: 19 µg/mL (≈ 40.5 µM)
- MIC [3]: 2 µg/mL (≈ 4.27 µM)
- MIC [4]: 0.049 µg/mL (≈ 0.105 µM)
- MIC [5]: 15 µg/mL (≈ 32 µM)
- MIC [6]: 14 µg/mL (≈ 29.9 µM)
- MIC [7]: 1 µg/mL (≈ 2.13 µM)
- MIC [8]: 2 µg/mL (≈ 4.27 µM)
- MIC [9]: 3 µg/mL (≈ 6.4 µM)
- MIC [10]: 50 µg/mL (≈ 107 µM)
- MIC [11]: 0.39 µg/mL (≈ 0.832 µM)
- IC50 [12]: 7.3 µM
- IC50 [13]: 4.1 µM
- MIC [14]: 0.7 µg/mL (≈ 1.49 µM)
- MIC [15]: 15 µg/mL (≈ 32 µM)
- IC50 [16]: 13 µM

Structure (SMILES): CCCC1=C(O)C(CCC)(CCC)C(=O)C(C(=O)CCc2ccccc2)=C1O [Compound 17, 3,5-dihydroxy-2-(3-phenylpropanoyl)-4,6,6-tripropylcyclohexa-2,4-dienone]
- MIC [1]: 3 µg/mL (≈ 7.8 µM)
- MIC [2]: > 40 µg/mL
- MIC [3]: 1 µg/mL (≈ 2.6 µM)
- MIC [5]: 15 µg/mL (≈ 39 µM)
- MIC [6]: 1.3 µg/mL (≈ 3.38 µM)
- MIC [7]: 2 µg/mL (≈ 5.2 µM)
- MIC [8]: 1 µg/mL (≈ 2.6 µM)
- MIC [9]: 2 µg/mL (≈ 5.2 µM)
- MIC [10]: > 50 µg/mL
- IC50 [12]: 70 µM
- IC50 [13]: 140 µM
- MIC [14]: 2 µg/mL (≈ 5.2 µM)
- MIC [15]: 19 µg/mL (≈ 49.4 µM)
- IC50 [16]: > 400 µM

Structure (SMILES): CC(C)CCC1=C(O)C(CCC(C)C)(CCC(C)C)C(=O)C(C(=O)CCc2ccccc2)=C1O [Compound 15, 3,5-dihydroxy-2-(3-phenylpropanoyl)-4,6,6-triisopentylcyclohexa-2,4-dienone]
- MIC [1]: 1 µg/mL (≈ 2.13 µM)
- MIC [2]: 25 µg/mL (≈ 53.3 µM)
- MIC [3]: 0.5 µg/mL (≈ 1.07 µM)
- MIC [4]: 0.098 µg/mL (≈ 0.209 µM)
- MIC [5]: 12 µg/mL (≈ 25.6 µM)
- MIC [6]: 4 µg/mL (≈ 8.53 µM)
- MIC [7]: 0.5 µg/mL (≈ 1.07 µM)
- MIC [8]: 1.5 µg/mL (≈ 3.2 µM)
- MIC [9]: 0.5 µg/mL (≈ 1.07 µM)
- MIC [10]: 50 µg/mL (≈ 107 µM)
- MIC [11]: 0.19 µg/mL (≈ 0.405 µM)
- IC50 [12]: 3.5 µM
- IC50 [13]: 2.6 µM
- MIC [14]: 0.4 µg/mL (≈ 0.853 µM)
- MIC [15]: 12 µg/mL (≈ 25.6 µM)
- IC50 [16]: 11 µM

Structure (SMILES): CCC1=C(O)C(CC)(CC)C(=O)C(C(=O)CCc2ccccc2)=C1O [Compound 16, 3,5-dihydroxy-2-(3-phenylpropanoyl)-4,6,6-triethylcyclohexa-2,4-dienone]
- MIC [1]: 19 µg/mL (≈ 55.5 µM)
- MIC [2]: > 40 µg/mL
- MIC [3]: 4 µg/mL (≈ 11.7 µM)
- MIC [5]: 15 µg/mL (≈ 43.8 µM)
- MIC [6]: 5 µg/mL (≈ 14.6 µM)
- MIC [7]: 8 µg/mL (≈ 23.4 µM)
- MIC [8]: 5 µg/mL (≈ 14.6 µM)
- MIC [9]: 6 µg/mL (≈ 17.5 µM)
- MIC [10]: > 50 µg/mL
- IC50 [12]: > 400 µM
- IC50 [13]: > 400 µM
- MIC [14]: 6 µg/mL (≈ 17.5 µM)
- MIC [15]: 19 µg/mL (≈ 55.5 µM)
- IC50 [16]: > 400 µM

Structure (SMILES): CC(C)CCC1=C(O)C(CCC(C)C)(CCC(C)C)C(=O)C(C(=O)CCc2cccc(Cl)c2)=C1O [Compound 2, 3,5-dihydroxy-2-(3-(3-chlorophenyl)propanoyl)-4,6,6-triisopentylcyclohexa-2,4-dienone]
- MIC [1]: 1 µg/mL (≈ 1.99 µM)
- MIC [2]: 19 µg/mL (≈ 37.8 µM)
- MIC [3]: 0.5 µg/mL (≈ 0.994 µM)
- MIC [4]: 0.098 µg/mL (≈ 0.195 µM)
- MIC [5]: 12 µg/mL (≈ 23.9 µM)
- MIC [6]: 15 µg/mL (≈ 29.8 µM)
- MIC [10]: 50 µg/mL (≈ 99.4 µM)
- MIC [11]: > 50 µg/mL
- IC50 [12]: 2.5 µM
- IC50 [13]: 2.2 µM
- MIC [15]: 19 µg/mL (≈ 37.8 µM)
- IC50 [16]: 5.9 µM

Structure (SMILES): COc1cccc(CCC(=O)C2=C(O)C(CCC(C)C)=C(O)C(CCC(C)C)(CCC(C)C)C2=O)c1 [Compound 5, 3,5-dihydroxy-2-(3-(3-methoxyphenyl)propanoyl)-4,6,6-triisopentylcyclohexa-2,4-dienone]
- MIC [1]: 2 µg/mL (≈ 4.01 µM)
- MIC [2]: 19 µg/mL (≈ 38.1 µM)
- MIC [3]: 0.4 µg/mL (≈ 0.802 µM)
- MIC [4]: 0.049 µg/mL (≈ 0.0983 µM)
- MIC [5]: 3.5 µg/mL (≈ 7.02 µM)
- MIC [6]: 2 µg/mL (≈ 4.01 µM)
- MIC [10]: 50 µg/mL (≈ 100 µM)
- MIC [11]: 1.56 µg/mL (≈ 3.13 µM)
- IC50 [12]: 1.1 µM
- IC50 [13]: 1.1 µM
- MIC [15]: 7.1 µg/mL (≈ 14.2 µM)
- IC50 [16]: 3.1 µM

Structure (SMILES): CC(C)CCC1=C(O)C(CCC(C)C)(CCC(C)C)C(=O)C(C(=O)CCc2ccccc2Cl)=C1O [Compound 1, 3,5-dihydroxy-2-(3-(2-chlorophenyl)propanoyl)-4,6,6-triisopentylcyclohexa-2,4-dienone]
- MIC [1]: 2 µg/mL (≈ 3.98 µM)
- MIC [2]: > 40 µg/mL
- MIC [3]: 0.6 µg/mL (≈ 1.19 µM)
- MIC [4]: 0.049 µg/mL (≈ 0.0974 µM)
- MIC [5]: 15 µg/mL (≈ 29.8 µM)
- MIC [6]: 24 µg/mL (≈ 47.7 µM)
- MIC [10]: 50 µg/mL (≈ 99.4 µM)
- MIC [11]: 6.25 µg/mL (≈ 12.4 µM)
- IC50 [12]: 2.1 µM
- IC50 [13]: 1.2 µM
- MIC [15]: 19 µg/mL (≈ 37.8 µM)
- IC50 [16]: 5.7 µM
